Measurements as given in patent US8513229B2, “4-Azetidinyl-1-phenyl-cyclohexane antagonists of CCR2” (Janssen Pharmaceutica NV, priority 2009, dated 2013).

Molecular target: T1, CCR2 (Homo sapiens, UniProt P41597)
T1 construct: host or cells: THP-1 human monocytic cells
T1 sequence (P41597 1-360 isoform P41597-2): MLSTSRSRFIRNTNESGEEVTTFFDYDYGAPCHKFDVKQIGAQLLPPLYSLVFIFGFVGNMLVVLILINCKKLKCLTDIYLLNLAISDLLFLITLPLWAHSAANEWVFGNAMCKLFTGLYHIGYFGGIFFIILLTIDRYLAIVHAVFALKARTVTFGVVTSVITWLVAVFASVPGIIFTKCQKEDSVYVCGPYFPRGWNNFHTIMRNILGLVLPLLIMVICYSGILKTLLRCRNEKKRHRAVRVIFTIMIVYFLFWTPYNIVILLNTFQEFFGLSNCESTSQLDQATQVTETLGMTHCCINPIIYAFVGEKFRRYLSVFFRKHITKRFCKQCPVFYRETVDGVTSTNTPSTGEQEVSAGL
Experiment: MCP-1 Receptor Binding Assay in THP-1 Cells
Conditions: 0.5 nM 125I labeled MCP-1, 2 hours at 30° C., read-out: Inhibition of MCP-1 Binding IC50 CCR2 Binding
Experimental: MCP-1 Receptor Binding Assay in THP-1 Cells
Human monocytic cell line THP-1 cells were obtained from American Type Culture Collection (Manassas, Va., USA). […] The cell density was maintained […].
1 μM cold MCP-1 was used for nonspecific binding.

Row | IC50 [nM] | SMILES
1 | 390 | O=C(CNC(=O)c1ccccc1)NC1CN(C2CCC(c3ccc4c(c3)OCO4)CC2)C1 (single isomer, unassigned) [Example 2a, N-{[1-(4-Benzo[1,3]dioxol-5-yl-cyclohexyl)-azetidin-3-ylcarbamoyl]-methyl}-benzamide]
2 | 86 | N#Cc1ccc(C2CCC(N3CC(NC(=O)CNC(=O)c4cccc(C(F)(F)F)c4)C3)CC2)cc1 (centres unmarked) [Example 27, N-({1-[4-(4-Cyano-phenyl)-cyclohexyl]-azetidin-3-ylcarbamoyl}-methyl)-3-trifluoromethyl-benzamide]
3 | 190 | O=C(CNC(=O)c1cccc(C(F)(F)F)c1)NC1CN(C2CCC(O)(c3ccc4oc(=O)[nH]c4c3)CC2)C1 (single isomer, unassigned) [Example 35a, N-({1-[4-Hydroxy-4-(2-oxo-2,3-dihydro-benzooxazol-5-yl)-cyclohexyl]-azetidin-3-ylcarbamoyl}-methyl)-3-trifluoromethyl-benzamide]
4 | 25 | O=C(CNC(=O)c1cccc(C(F)(F)F)c1)NC1CN(C2CCC(O)(c3ccc4c(c3)OCC4)CC2)C1 (single isomer, unassigned) [Example 33a, N-({1-[4-(2,3-Dihydro-benzofuran-6-yl)-4-hydroxy-cyclohexyl]-azetidin-3-ylcarbamoyl}-methyl)-3-trifluoromethyl-benzamide]
5 | 4700 | O=C(CNC(=O)c1cc(C(F)(F)F)cc(C(F)(F)F)c1)NC1CN(C2CCC(c3ccccc3)CC2)C1 (single isomer, unassigned) [Example 75a, N-{[1-(4-Phenyl-cyclohexyl)-azetidin-3-ylcarbamoyl]-methyl}-3,5-bis-trifluoromethyl-benzamide]
6 | 340 | CCOC(=O)Cc1ccc(C2CCC(N3CC(NC(=O)CNC(=O)c4cccc(C(F)(F)F)c4)C3)CC2)cc1 (single isomer, unassigned) [Example 24a, [4-(4-{3-[2-(3-Trifluoromethyl-benzoylamino)-acetylamino]-azetidin-1-yl}-cyclohexyl)-phenyl]-acetic acid ethyl ester]
7 | 740 | COc1ccc(C(F)(F)F)cc1C(=O)NCC(=O)NC1CN(C2CCC(c3ccccc3)CC2)C1 (centres unmarked) [Example 68, 2-Methoxy-N-{[1-(4-phenyl-cyclohexyl)-azetidin-3-ylcarbamoyl]-methyl}-5-trifluoromethyl-benzamide]
8 | 228 | C#Cc1cccc(C2(O)CCC(N3CC(NC(=O)CNC(=O)c4cccc(C(F)(F)F)c4)C3)CC2)c1 (single isomer, unassigned) [Example 51a, N-({1-[4-(3-Ethynyl-phenyl)-4-hydroxy-cyclohexyl]-azetidin-3-ylcarbamoyl}-methyl)-3-trifluoromethyl-benzamide]
9 | 50 | CC(C)(C)NC(=O)Nc1cc(C(=O)NCC(=O)NC2CN(C3CCC(c4ccccc4)CC3)C2)cc(C(F)(F)F)c1 (centres unmarked) [Example 82, 3-(3-tert-Butyl-ureido)-N-{[1-(4-phenyl-cyclohexyl)-azetidin-3-ylcarbamoyl]-methyl}-5-trifluoromethyl-benzamide]

The remaining lines, values behind:

Row | SMILES | IC50 [nM]
10 | O=C(CNC(=O)c1cccc(C(F)(F)F)c1)NC1CN(C2CCC(O)(c3ccc(F)cc3)CC2)C1 (single isomer, unassigned) [Example 47a, N-({1-[4-(4-Fluoro-phenyl)-4-hydroxy-cyclohexyl]-azetidin-3-ylcarbamoyl}-methyl)-3-trifluoromethyl-benzamide] | 206
11 | NC(=O)Nc1ccc(C2CCC(N3CC(NC(=O)CNC(=O)c4cccc(C(F)(F)F)c4)C3)CC2)cc1 (centres unmarked) [Example 19, 3-Trifluoromethyl-N-({1-[4-(4-ureido-phenyl)-cyclohexyl]-azetidin-3-ylcarbamoyl}-methyl)-benzamide] | 130
12 | COc1ccc(C2CCC(N3CC(NC(=O)CNC(=O)c4cccc(C(F)(F)F)c4)C3)CC2)cc1 (single isomer, unassigned) [Example 7a, N-({1-[4-(4-Methoxy-phenyl)-cyclohexyl]-azetidin-3-ylcarbamoyl}-methyl)-3-trifluoromethyl-benzamide] | 50
13 | NC(=O)c1ccc(C2(O)CCC(N3CC(NC(=O)CNC(=O)c4cccc(C(F)(F)F)c4)C3)CC2)cc1 (single isomer, unassigned) [Example 55a, N-({1-[4-(4-benzamide)-4-hydroxy-cyclohexyl]-azetidin-3-ylcarbamoyl}-methyl)-3-trifluoromethyl-benzamide] | 5300
14 | O=C(CNC(=O)c1cccc(C(F)(F)F)c1)NC1CN(C2CCC(c3cccc(C(=O)O)c3)CC2)C1 (centres unmarked) [Example 12, 3-(4-{3-[2-(3-Trifluoromethyl-benzoylamino)-acetylamino]-azetidin-1-yl}-cyclohexyl)-benzoic acid] | 220
15 | CCc1cccc(C2(O)CCC(N3CC(NC(=O)CNC(=O)c4cccc(C(F)(F)F)c4)C3)CC2)c1 (centres unmarked) [Example 52, N-({1-[4-(3-Ethyl-phenyl)-4-hydroxy-cyclohexyl]-azetidin-3-ylcarbamoyl}-methyl)-3-trifluoromethyl-benzamide] | 160
16 | Nc1cccc(C2(O)CCC(N3CC(NC(=O)CNC(=O)c4cccc(C(F)(F)F)c4)C3)CC2)c1 (single isomer, unassigned) [Example 58a, N-({1-[4-(3-Amino-phenyl)-4-hydroxy-cyclohexyl]-azetidin-3-ylcarbamoyl}-methyl)-3-trifluoromethyl-benzamide] | 52
17 | O=C(CNC(=O)c1cccc(C(F)(F)F)c1)NC1CN(C2CCC(c3ccc4c(c3)OCO4)CC2)C1 (single isomer, unassigned) [Example 1a, N-{[1-(4-Benzo[1,3]dioxol-5-yl-cyclohexyl)-azetidin-3-ylcarbamoyl]-methyl}-3-trifluoromethyl-benzamide] | 1.2
18 | CC(C)(C)NC(=O)Nc1ccc(C2CCC(N3CC(NC(=O)CNC(=O)c4cccc(C(F)(F)F)c4)C3)CC2)cc1 (centres unmarked) [Example 18, N-[(1-{4-[4-(3-tert-Butyl-ureido)-phenyl]-cyclohexyl}-azetidin-3-ylcarbamoyl)-methyl]-3-trifluoromethyl-benzamide] | > 25000
19 | COc1ccc(C2(N)CCC(N3CC(NC(=O)CNC(=O)c4cccc(C(F)(F)F)c4)C3)CC2)cc1 (centres unmarked) [Example 86, N-({1-[4-Amino-4-(4-methoxy-phenyl)-cyclohexyl]-azetidin-3-ylcarbamoyl}-methyl)-3-trifluoromethyl-benzamide] | 320
20 | Nc1cc(C(=O)NCC(=O)NC2CN(C3CCC(c4ccccc4)CC3)C2)cc(C(F)(F)F)c1 (centres unmarked) [Example 79, 3-Amino-N-{[1-(4-phenyl-cyclohexyl)-azetidin-3-ylcarbamoyl]-methyl}-5-trifluoromethyl-benzamide] | 23
21 | O=C(CNC(=O)c1cccc(C(F)(F)F)c1)NC1CN(C2CCC(c3ccc(-c4nn[nH]n4)cc3)CC2)C1 (centres unmarked) [Example 28, N-[(1-{4-[4-(2H-Tetrazol-5-yl)-phenyl]-cyclohexyl}-azetidin-3-ylcarbamoyl)-methyl]-3-trifluoromethyl-benzamide] | 200
22 | Cn1c(=O)oc2ccc(C3(O)CCC(N4CC(NC(=O)CNC(=O)c5cccc(C(F)(F)F)c5)C4)CC3)cc21 (centres unmarked) [Example 63a, N-({1-[4-Hydroxy-4-(3-methyl-2-oxo-2,3-dihydro-benzooxazol-5-yl)-cyclohexyl]-azetidin-3-ylcarbamoyl}-methyl)-3-trifluoromethyl-benzamide] | 150
23 | O=C(CNC(=O)c1cc(F)cc(C(F)(F)F)c1)NC1CN(C2CCC(c3ccccc3)CC2)C1 (single isomer, unassigned) [Example 76a, 3-Fluoro-N-{[1-(4-phenyl-cyclohexyl)-azetidin-3-ylcarbamoyl]-methyl}-5-trifluoromethyl-benzamide] | 220
24 | O=C(CNC(=O)c1cc(O)cc(C(F)(F)F)c1)NC1CN(C2CCC(c3ccccc3)CC2)C1 (centres unmarked) [Example 81, 3-Hydroxy-N-{[1-(4-phenyl-cyclohexyl)-azetidin-3-ylcarbamoyl]-methyl}-5-trifluoromethyl-benzamide] | 11000
25 | O=C(CNC(=O)c1cc([N+](=O)[O-])cc(C(F)(F)F)c1)NC1CN(C2CCC(c3ccccc3)CC2)C1 (centres unmarked) [Example 78, 3-Nitro-N-{[1-(4-phenyl-cyclohexyl)-azetidin-3-ylcarbamoyl]-methyl}-5-trifluoromethyl-benzamide] | 1000
26 | O=C(CNC(=O)c1cccc(C(F)(F)F)c1)NC1CN(C2CCC(O)(c3cccc(-c4nnn[nH]4)c3)CC2)C1 (centres unmarked) [Example 49, N-[(1-{4-Hydroxy-4-[3-(1H-tetrazol-5-yl)-phenyl]-cyclohexyl}-azetidin-3-ylcarbamoyl)-methyl]-3-trifluoromethyl-benzamide] | 810
27 | COc1cccc(C2(O)CCC(N3CC(NC(=O)CNC(=O)c4cccc(C(F)(F)F)c4)C3)CC2)c1 (single isomer, unassigned) [Example 37a, N-({1-[4-Hydroxy-4-(3-methoxy-phenyl)-cyclohexyl]-azetidin-3-ylcarbamoyl}-methyl)-3-trifluoromethyl-benzamide] | 69
28 | O=C(CNC(=O)c1cc(C(F)(F)F)ccc1F)NC1CN(C2CCC(c3ccccc3)CC2)C1 (centres unmarked) [Example 66, 2-Fluoro-N-{[1-(4-phenyl-cyclohexyl)-azetidin-3-ylcarbamoyl]-methyl}-5-trifluoromethyl-benzamide] | 620
29 | COc1ccc(C2(O)CCC(N3CC(NC(=O)CNC(=O)c4cccc(C(F)(F)F)c4)C3)CC2)cc1F (single isomer, unassigned) [Example 57a, N-({1-[4-(3-Fluoro-4-methoxy-phenyl)-4-hydroxy-cyclohexyl]-azetidin-3-ylcarbamoyl}-methyl)-3-trifluoromethyl-benzamide] | 33
